From ChEMBL document CHEMBL3085678, “3-Azatetracyclo[5.2.1.1(5,8).0(1,5)]undecane derivatives: from wild-type inhibitors of the M2 ion channel of influenza A virus to derivatives with potent activity against the V27A mutant” (J Med Chem, 2013) come the findings set out here.

The nature of data set [1]: Cytotoxicity against MDCK cells assessed as minimum cytotoxic concentration after 24 hrs by MTS assay. It is filed as cell-based, Canis lupus familiaris. To be noted: dog. Background: Tetrazolium dyes change colour on reduction, which living cells bring about.
Data set [2] can be described thus: Cytotoxicity against MDCK cells assessed as minimum cytotoxic concentration after 72 hrs by MTS assay. It counts as cell-based, Canis lupus familiaris. Conditions: dog.
A further data set deals with MDCK. Kind of data set: Cytotoxicity against MDCK cells after 72 hrs by MTS assay. It is filed as cell-based, Canis lupus familiaris. Conditions: dog.
Data set [3] relates to Influenza A virus (A/udorn/1972(H3N2)). It counts as cell membranes. Conditions: 100 uM.
Data set [4] in a line: Inhibition of Influenza A virus M2 ion channel by two-electrode voltage clamp assay. (Two-electrode voltage clamp holds a large cell at a set potential and records current.)
The test system of the next data set is Coxsackievirus B4. Kind of data set: Antiviral activity against Coxsackievirus B4. It counts as functional, organism-based.
For data set [5], the system named is Mammalian orthoreovirus 1. Kind of data set: Antiviral activity against Reovirus-1. It is filed as functional, organism-based.
A further data set deals with Punta Toro virus. Kind of data set: Antiviral activity against Punta Toro virus. It counts as functional, organism-based.
The test system of data set [6] is Vesicular stomatitis virus. Kind of data set: Antiviral activity against Vesicular stomatitis virus. It is filed as functional, organism-based.
Another data set has as its system Sindbis virus. Kind of data set: Antiviral activity against Sindbis virus. It counts as functional, organism-based.
Data set [7] relates to Respiratory syncytial virus. Kind of data set: Antiviral activity against Respiratory syncytial virus. It is filed as functional, organism-based.
Another data set has as its system Human respirovirus 3. Kind of data set: Antiviral activity against Parainfluenza-3 virus. It is filed as functional, organism-based.
The test system of another data set is Vaccinia virus. Briefly: Antiviral activity against Vaccinia virus. It is filed as functional, organism-based. To be noted: Orthopoxvirus vaccinia.
The next data set relates to Feline coronavirus. Briefly: Antiviral activity against Feline coronavirus. It is filed as functional, organism-based.
The next data set concerns Human alphaherpesvirus 2. Briefly: Antiviral activity against Herpes simplex virus type 2. It is filed as functional, organism-based.
The next data set has as its system Human alphaherpesvirus 1. Kind of data set: Antiviral activity against Herpes simplex virus type 1. It counts as functional, organism-based.

Calls of active or inactive are those of the source. The calls are words filed in the database; no cut-off is given here. Some results are limits rather than exact numbers.

What is called CC50 is the concentration giving 50% cytotoxicity. Low values mean harm at low concentration, high ones better tolerance by the cells. With `CC(N)C12CC3CC(CC(C3)C1)C2` (stereo unspecified) [RIMANTADINE], in data set [1], the MCC at 24 h is not below 500 µM. Besides, the MCC at 72 h in data set [2] was 500 µM. For the same compound, the CC50 with MDCK was 203 µM.
In general, inhibition refers to how much of the control response was suppressed. Lower therefore signals little suppression. Take `NC12CC3CC(CC(C3)C1)C2` [AMANTADINE]: the MCC at 24 h in data set [1] is not below 500 µM. The MCC at 72 h in data set [2] was more than 500 µM. The compound also yielded a CC50 in the data set with MDCK of more than 500 µM. This compound also gave an inhibition in data set [3] of 91%.
A word on the IC50: it is the midpoint of a concentration-inhibition curve. Read a high IC50 as lower potency. Turning to `Oc1ccc(CNC23CC4CC(CC(C4)C2)C3)c(O)c1`, the IC50 in data set [4] came out at 59 µM.
For the compound `N=C(N)N1CC23CC45CCCCC4(C2)CC3(C1)C5`, the MCC at 24 h in [1] is not below 10 µM. For the same compound, the MCC at 72 h in data set [2] stood at 4 µM. Besides, the 50% cytotoxic concentration (CC50) with MDCK was found to be 3.1 µM. Further, the result (with Coxsackievirus B4; in data set [5]; in the data set on Punta Toro virus; in data set [6]; in the data set on Sindbis virus; in data set [7]) was inactive. Further, the outcome in the data set on Human respirovirus 3, in the data set with Vaccinia virus, with Feline coronavirus, in the data set on Human alphaherpesvirus 2 and in the data set with Human alphaherpesvirus 1 was inactive. Further, the inhibition in data set [3] came out at 93.1%.
As to `N=C(N)N1CC23CC4CC2(CC4C3)C1`, in data set [1], the MCC at 24 h is more than 50 µM. The MCC at 72 h in data set [2] worked out at 8.5 µM. Also, the CC50 with MDCK amounted to 10 µM. The outcome (in the data set with Coxsackievirus B4; in [5]; in the data set with Punta Toro virus; in [6]; in the data set with Sindbis virus; in data set [7]) was inactive. For the same compound, the outcome with Human respirovirus 3, with Vaccinia virus, in the data set on Feline coronavirus, with Human alphaherpesvirus 2 and in the data set on Human alphaherpesvirus 1 was inactive. In data set [3], this compound yielded an inhibition of 95.7%.
In the case of `CC12CC34CN(C(=N)N)CC3(C1)CC2(C)C4`, in [1], the MCC at 24 h was more than 50 µM. In addition, in [2], the MCC at 72 h came to 4 µM. The same compound yielded a cytotoxic concentration (CC50) in the data set with MDCK of 1.4 µM. The outcome (with Coxsackievirus B4; in data set [5]; with Punta Toro virus; in [6]; in the data set on Sindbis virus; in data set [7]) was inactive. The result in the data set with Human respirovirus 3, in the data set on Vaccinia virus, with Feline coronavirus, in the data set with Human alphaherpesvirus 2 and in the data set with Human alphaherpesvirus 1 was inactive. Besides, the inhibition in data set [3] turned out to be 92.4%.
As to `c1csc(-c2cc(CNC34CC5CC(CC(C5)C3)C4)no2)c1`, the IC50 in data set [4] was more than 100 µM.
As to `C1CCC23CC45CNCC4(CC2(C1)C5)C3`, in data set [1], the MCC at 24 h is more than 50 µM. Moreover, in data set [2], the MCC at 72 h is 4 µM. Besides, half-maximal cytotoxicity with MDCK (CC50) was put at 6.8 µM. The outcome (in the data set on Coxsackievirus B4; in [5]; in the data set on Punta Toro virus; in data set [6]; with Sindbis virus; in data set [7]) was inactive. The result in the data set with Human respirovirus 3, in the data set on Vaccinia virus, in the data set with Feline coronavirus, with Human alphaherpesvirus 2 and with Human alphaherpesvirus 1 was inactive. Also, in data set [3], the inhibition is 85.3%.
As for `NC(=O)c1ncn([C@@H]2O[C@H](CO)[C@@H](O)[C@H]2O)n1` [RIBAVIRIN], the MCC at 24 h in data set [1] is more than 100 µM.
`CC12CC34CNCC3(C1)CC2(C)C4`: in data set [2], the MCC at 72 h came to 100 µM. In the data set with MDCK, this compound showed a CC50 of 59 µM. Further, the outcome (in the data set on Coxsackievirus B4; in data set [5]; in the data set with Punta Toro virus; in data set [6]; in the data set with Sindbis virus; in [7]) was inactive. For the same compound, the outcome in the data set with Human respirovirus 3, in the data set on Vaccinia virus, in the data set on Feline coronavirus, in the data set with Human alphaherpesvirus 2 and in the data set on Human alphaherpesvirus 1 was inactive. In addition, in data set [3], the inhibition turned out to be 93.8%.
On to `NC1CCC2(CC1)C1CC3CC(C1)CC2C3` (stereo unspecified), for which, in data set [4], the IC50 amounted to 19 µM.
The same measure, in the same setting: for `NC1CC[Si]2(CCCCC2)CC1` the value was 14 µM.
